Literature values in paper PMC4331071 (Clinical cancer research : an official journal of the …, 2013).

Test system: GRP78

WIFPWIQL
efficacy among GRP78 binding peptides: highest efficacy
